The target of test [1] is T1, SULT1E1 F80A/F75A (Homo sapiens, UniProt P49888, F75A/F80A).
T1 construct: E. coli codon-optimized SULT1E1 coding region inserted into the PreScission Protease cleavage site; His/GST/MBP triple tag (N, cleaved yes); made in house; host or cells: E. coli BL21(DE3)
T1 sequence (P49888 1-294 F75A/F80A): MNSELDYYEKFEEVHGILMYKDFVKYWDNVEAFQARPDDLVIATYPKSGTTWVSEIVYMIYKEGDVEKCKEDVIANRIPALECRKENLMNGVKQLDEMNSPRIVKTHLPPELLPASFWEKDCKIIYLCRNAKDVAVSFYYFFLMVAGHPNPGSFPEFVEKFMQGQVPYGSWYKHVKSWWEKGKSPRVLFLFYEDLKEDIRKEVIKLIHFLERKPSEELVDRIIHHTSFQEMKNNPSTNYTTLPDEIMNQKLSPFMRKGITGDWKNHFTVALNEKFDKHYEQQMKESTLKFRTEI
The test is described as follows: Initial-rate studies (1-HP sulfonation; OH-PCB1 inhibition), double mutant. Format: biochemical. How it is done:
(§1) C. Reaction progress was monitored via the fluorescence change associated with 1-HP sulfonation (λex = 325 nm, λem = 370 nm ([51], [52])). Initial rates were measured during conversion to product of ≤5% of the concentration-limiting substrate consumed at the reaction endpoint. Velocities were determined in triplicate. Km and kcat were obtained by (1/v^4)-weighted least-squares fitting of the averaged data in double-reciprocal space (i.e., 1/v versus 1/[S]) ([66], [67]).
(§2) Inhibition studies were performed as described above except: 1-HP was fixed (2.0 μM, 100 × Km), OH-PCBs were added (0.20–20 × Ki), and SULT1E1 was 0.20 nM (active sites). Ki was determined by least-squares fitting to a noncompetitive inhibition model ([66], [67]).

For test [2], the target named is T2, SULT1E1 F80A (Homo sapiens, UniProt P49888, F80A).
T2 construct: E. coli codon-optimized SULT1E1 coding region inserted into the PreScission Protease cleavage site; His/GST/MBP triple tag (N, cleaved yes); made in house; host or cells: E. coli BL21(DE3)
T2 sequence (P49888 1-294 F80A): T1 sequence (P49888 1-294 F75A/F80A) with A75F
The test is described as follows: Initial-rate studies (1-HP sulfonation; OH-PCB1 inhibition), F80A mutant. Format: biochemical. How it is done:
as §1, §2

The subject of test [3] is estrogen receptor (ER) activation in Ishikawa cells expressing F75A/F80A SULT1E1. In words: cells. Format: cell-based, human. To be noted: Homo sapiens, Ishikawa; F75A/F80A cell line; OH-PCB titration at 10 nM E2 (footnote a); NE = No Effect; read-out: Ligand EC50, ER activation. How it is done:
(§3) pcDNA 3.1 constructs harboring either the SULT1E1 WT or double mutant (F75A/F80A) coding regions were generated using Gibson Assembly ([74]). The vectors were linearized using BGIII. Ishikawa cells were grown at 37 °C ± 2 deg. C in growth medium (MEM media containing 10% v/v FBS). At confluence, the cells were washed (3×) with PBS media before coating with an Opti-MEM solution containing a linearized construct (50 ng μg^−1) and lipofectamine (2.5 units ml^−1). After 24 h at 37 °C ± 2 deg. C, cells were washed (3×) with PBS before adding growth medium containing neomycin (400 μg ml^−1) to select transfectants. Selective growth medium was replenished every 48 h until single colonies could be isolated (∼3–6 weeks). Single colonies were transferred using trypsin digest (0.05%) to 12-well plates and grown at 37 °C ± 2 deg. C to confluence for further experimentation and storage.
(§4) Transfected Ishikawa cells were grown at 37 °C ± 2 deg. C to 60 to 70% confluency in MEM containing 10% v/v FBS. Cells were then transferred to 96-well tissue culture plates and grown at 37 °C ± 2 deg. C to 80% confluency in MEM containing 10% v/v charcoal filtered FBS. The plate was then washed with PBS and grown at 37 °C ± 2 deg. C for 24 h in MEM without FBS. Estradiol (0–3.0 μM) and OH-PCB (0–1.0 μM) solubilized in neat DMSO were added and cells were incubated at 37 °C ± 2 deg. C for 5 days. The final concentrations of DMSO were ≤0.10%. Cells were then washed twice with PBS before adding pNpp (5.0 mM) in PBS ([75]). Following incubation with pNpp for 3 h at 25 °C ± 2 deg. C, wells were read at 405 nm using a Synergy HT BioTek Plate Reader.

Test [4] relates to estrogen receptor (ER) activation in Ishikawa cells expressing WT SULT1E1. The test is described as follows: cells. Format: cell-based, human. The settings on record: Homo sapiens, Ishikawa; WT cell line; OH-PCB titration at 10 nM E2 (footnote a); parentheses = one SD; read-out: Ligand EC50, ER activation. How it is done: as §3, §4
[5] abbreviates: noncompetitive inhibition model, parentheses = one SD.

Numbering of substitutions follows the chain as printed.

Consider one molecule from publication PMC7949139, “The molecular basis of OH-PCB estrogen receptor activation” (The Journal of Biological Chemistry, 2021).

Usually Ki stands for a measure of affinity in units of concentration, obtained from inhibition or displacement. What is called EC50 is the concentration giving half of the maximal effect. Consider `Oc1ccc(-c2c(Cl)cccc2Cl)cc1` [OH-PCB1, 4ʹ-OH-2,6-dichlorobiphenol], for which the “Fold Effect = Ki OH-PCB1/Ki OH-PCB1 WT” value in test [1] worked out at 113; in test [2], 12. The Ki was found to be 6800 nM in test [1] (setting [5]) and 730 nM in test [2] (setting [5]). Further, the EC50 in test [3] is greater than 1000 nM; in test [4], 38 nM.
